# Measured values taken from ChEMBL document CHEMBL1149131, “QSAR study of anticonvulsant negative allosteric modulators of the AMPA receptor” (J Med Chem, 2004).
# Experiments:
# [1] = molecular target: T1, Glutamate receptor ionotropic, AMPA (Mus musculus) (UniProt P23819+P23818+Q9Z2W8+Q9Z2W9); assay: In vivo anticonvulsant activity was measured as median effective dose required to prevent clonic phase of seizure in DBA/2 mice; assay type: functional, organism-based
# [2] = molecular target: T1, Glutamate receptor ionotropic, AMPA (Mus musculus); assay: In vivo anticonvulsant activity was measured as median effective dose required to prevent tonic phase of seizure in DBA/2 mice; assay type: functional, organism-based
# T1 sequence (P23818 whole entry, looked up): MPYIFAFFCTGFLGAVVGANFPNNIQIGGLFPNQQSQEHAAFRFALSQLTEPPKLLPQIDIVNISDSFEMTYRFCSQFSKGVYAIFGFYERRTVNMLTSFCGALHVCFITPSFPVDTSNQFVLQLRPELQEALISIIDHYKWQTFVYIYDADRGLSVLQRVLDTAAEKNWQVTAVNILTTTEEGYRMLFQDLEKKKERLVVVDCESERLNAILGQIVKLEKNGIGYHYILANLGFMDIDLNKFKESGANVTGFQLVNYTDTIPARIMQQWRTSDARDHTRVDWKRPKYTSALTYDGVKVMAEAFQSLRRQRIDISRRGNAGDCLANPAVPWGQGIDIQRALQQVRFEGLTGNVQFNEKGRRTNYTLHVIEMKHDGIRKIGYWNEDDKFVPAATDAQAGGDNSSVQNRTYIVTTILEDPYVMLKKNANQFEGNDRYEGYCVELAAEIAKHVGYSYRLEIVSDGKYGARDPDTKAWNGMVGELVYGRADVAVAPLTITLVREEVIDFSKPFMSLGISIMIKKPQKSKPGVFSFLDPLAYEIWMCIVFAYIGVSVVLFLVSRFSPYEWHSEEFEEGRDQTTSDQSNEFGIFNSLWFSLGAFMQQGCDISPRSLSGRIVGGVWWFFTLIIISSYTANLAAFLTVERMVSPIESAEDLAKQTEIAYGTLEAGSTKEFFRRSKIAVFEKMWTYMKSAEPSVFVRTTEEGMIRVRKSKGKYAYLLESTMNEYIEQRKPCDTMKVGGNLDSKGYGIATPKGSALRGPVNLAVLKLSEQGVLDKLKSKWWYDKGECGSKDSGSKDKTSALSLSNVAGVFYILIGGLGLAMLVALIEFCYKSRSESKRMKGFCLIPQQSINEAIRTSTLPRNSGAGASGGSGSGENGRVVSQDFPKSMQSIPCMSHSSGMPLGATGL
# T1 sequence (P23819 whole entry, looked up): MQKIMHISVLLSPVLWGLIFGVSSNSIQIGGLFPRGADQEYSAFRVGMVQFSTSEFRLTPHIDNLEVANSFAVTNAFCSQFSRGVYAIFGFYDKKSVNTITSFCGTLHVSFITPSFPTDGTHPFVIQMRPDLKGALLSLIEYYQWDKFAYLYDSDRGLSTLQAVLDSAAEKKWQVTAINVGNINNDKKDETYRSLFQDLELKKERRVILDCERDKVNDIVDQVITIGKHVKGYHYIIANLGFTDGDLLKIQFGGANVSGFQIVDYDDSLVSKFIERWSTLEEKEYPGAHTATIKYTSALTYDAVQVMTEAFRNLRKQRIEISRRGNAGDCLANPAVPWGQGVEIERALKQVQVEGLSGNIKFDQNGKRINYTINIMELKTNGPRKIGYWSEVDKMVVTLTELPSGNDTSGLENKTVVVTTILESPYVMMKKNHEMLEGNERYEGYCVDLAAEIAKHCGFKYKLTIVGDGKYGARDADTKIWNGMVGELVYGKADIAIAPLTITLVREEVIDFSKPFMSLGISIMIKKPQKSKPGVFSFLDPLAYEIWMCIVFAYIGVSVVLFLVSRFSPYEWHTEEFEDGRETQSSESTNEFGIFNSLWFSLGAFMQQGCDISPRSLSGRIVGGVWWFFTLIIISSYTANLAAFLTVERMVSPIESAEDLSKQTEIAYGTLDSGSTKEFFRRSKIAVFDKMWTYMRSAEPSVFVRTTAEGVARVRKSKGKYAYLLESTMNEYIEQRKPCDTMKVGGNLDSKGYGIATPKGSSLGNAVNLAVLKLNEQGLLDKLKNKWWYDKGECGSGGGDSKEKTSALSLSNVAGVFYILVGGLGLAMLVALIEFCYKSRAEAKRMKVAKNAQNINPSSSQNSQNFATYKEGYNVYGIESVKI
# T1 sequence (Q9Z2W8 whole entry, looked up): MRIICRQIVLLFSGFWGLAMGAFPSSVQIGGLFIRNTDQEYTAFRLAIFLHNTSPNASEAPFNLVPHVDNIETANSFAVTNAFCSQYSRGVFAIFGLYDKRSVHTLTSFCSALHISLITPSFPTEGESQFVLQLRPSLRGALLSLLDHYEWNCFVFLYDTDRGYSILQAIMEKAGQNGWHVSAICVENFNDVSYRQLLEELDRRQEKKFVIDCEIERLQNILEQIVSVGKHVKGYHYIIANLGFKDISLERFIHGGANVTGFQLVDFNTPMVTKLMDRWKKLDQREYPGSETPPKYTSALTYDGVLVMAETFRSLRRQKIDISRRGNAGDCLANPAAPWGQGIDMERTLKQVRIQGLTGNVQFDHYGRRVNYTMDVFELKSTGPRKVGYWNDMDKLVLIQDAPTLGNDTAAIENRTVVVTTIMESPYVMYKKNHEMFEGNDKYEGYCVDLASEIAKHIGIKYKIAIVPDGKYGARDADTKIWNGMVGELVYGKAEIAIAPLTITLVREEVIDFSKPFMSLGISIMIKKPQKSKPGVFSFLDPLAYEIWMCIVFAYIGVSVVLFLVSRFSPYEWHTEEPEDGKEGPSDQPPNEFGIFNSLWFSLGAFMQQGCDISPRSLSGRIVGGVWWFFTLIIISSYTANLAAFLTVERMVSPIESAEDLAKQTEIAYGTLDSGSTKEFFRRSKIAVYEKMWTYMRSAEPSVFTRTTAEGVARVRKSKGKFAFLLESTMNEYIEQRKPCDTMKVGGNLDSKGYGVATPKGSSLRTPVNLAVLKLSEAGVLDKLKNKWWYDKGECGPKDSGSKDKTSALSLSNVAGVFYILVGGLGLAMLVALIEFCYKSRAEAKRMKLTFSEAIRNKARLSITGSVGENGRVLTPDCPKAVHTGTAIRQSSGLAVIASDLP
# T1 sequence (Q9Z2W9 whole entry, looked up): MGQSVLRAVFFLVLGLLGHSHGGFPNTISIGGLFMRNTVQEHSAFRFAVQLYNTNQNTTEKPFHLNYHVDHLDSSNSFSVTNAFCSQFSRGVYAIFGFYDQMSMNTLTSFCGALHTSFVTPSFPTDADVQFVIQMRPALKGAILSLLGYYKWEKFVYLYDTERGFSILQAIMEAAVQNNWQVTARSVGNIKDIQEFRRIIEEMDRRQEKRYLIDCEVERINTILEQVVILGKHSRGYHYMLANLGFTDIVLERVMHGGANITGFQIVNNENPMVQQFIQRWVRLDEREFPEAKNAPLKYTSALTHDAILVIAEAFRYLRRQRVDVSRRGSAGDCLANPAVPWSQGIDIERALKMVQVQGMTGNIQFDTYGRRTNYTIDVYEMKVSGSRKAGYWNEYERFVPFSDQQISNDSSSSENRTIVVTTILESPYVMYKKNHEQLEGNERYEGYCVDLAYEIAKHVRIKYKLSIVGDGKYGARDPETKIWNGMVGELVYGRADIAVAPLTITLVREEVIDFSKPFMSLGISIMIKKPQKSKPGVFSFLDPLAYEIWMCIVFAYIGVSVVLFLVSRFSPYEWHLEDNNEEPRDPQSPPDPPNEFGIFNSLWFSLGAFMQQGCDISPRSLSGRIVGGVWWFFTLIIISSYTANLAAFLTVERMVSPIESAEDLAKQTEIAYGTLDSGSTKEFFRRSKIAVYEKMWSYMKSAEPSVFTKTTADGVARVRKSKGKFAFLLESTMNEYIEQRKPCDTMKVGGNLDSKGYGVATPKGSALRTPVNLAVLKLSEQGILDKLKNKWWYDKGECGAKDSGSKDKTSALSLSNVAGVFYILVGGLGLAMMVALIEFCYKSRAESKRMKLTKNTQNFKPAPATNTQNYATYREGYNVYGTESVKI
compound,measurement,setting,value
COc1ccc2c(c1)CC(=O)N(C)N=C2c1ccccc1,ED50,[1],117 µmol/kg
same,ED50,[2],99.1 µmol/kg
COc1ccc2c(c1)CC(=O)NN=C2c1ccccc1,ED50,[1],75.5 µmol/kg
same,ED50,[2],64.8 µmol/kg
COc1cc2c(cc1OC)C(c1ccc(Br)cc1)=NN=C(S)C2,ED50,[1],52.1 µmol/kg
same,ED50,[2],33.3 µmol/kg
COc1cc2c(O)nnc(-c3ccc(N)cc3)c2cc1OC,ED50,[1],60.5 µmol/kg
same,ED50,[2],52 µmol/kg
Nc1cccc(-c2nnc(O)c3cc4c(cc23)OCO4)c1,ED50,[1],23.3 µmol/kg
same,ED50,[2],15.7 µmol/kg
CN1N=C(c2ccc(N)cc2)c2cc3c(cc2CC1=O)OCO3,ED50,[1],41.1 µmol/kg
same,ED50,[2],29.5 µmol/kg
O=C1Cc2cc3c(cc2C(c2ccc(F)cc2)=NN1)OCO3,ED50,[1],89.8 µmol/kg
same,ED50,[2],63.8 µmol/kg
COc1cc2c(cc1OC)C(c1cccc([N+](=O)[O-])c1)=Nn1c(O)nnc1C2,ED50,[1],56.4 µmol/kg
same,ED50,[2],43.2 µmol/kg
O=C1Cc2cc3c(cc2C(c2ccccc2)=NN1)OCO3,ED50,[1],43.3 µmol/kg
same,ED50,[2],40.6 µmol/kg
COc1cc2c(O)nnc(-c3cccc(N)c3)c2cc1OC,ED50,[1],68.3 µmol/kg
same,ED50,[2],59.9 µmol/kg
COc1cc2c(cc1OC)C(c1ccc(Cl)cc1)=NN(C)C(=O)C2,ED50,[1],41.2 µmol/kg
same,ED50,[2],38.6 µmol/kg
COc1cc2c(cc1OC)C(c1ccc(F)cc1)=NNC(=O)C2,ED50,[1],78 µmol/kg
same,ED50,[2],57.2 µmol/kg
COc1cc2c(cc1OC)C(c1ccccc1)=NN=C(S)C2,ED50,[1],19.7 µmol/kg
same,ED50,[2],15 µmol/kg
CC1=NN=C(c2ccc(N)cc2)c2cc3c(cc2C1)OCO3,ED50,[1],35.8 µmol/kg
same,ED50,[2],25.3 µmol/kg
COc1cc2c(cc1OC)C(c1ccc(Cl)cc1)=NNC(=O)C2,ED50,[1],102 µmol/kg
same,ED50,[2],75.3 µmol/kg
Oc1nnc(-c2ccccc2)c2cc3c(cc12)OCO3,ED50,[1],36.7 µmol/kg
same,ED50,[2],31.3 µmol/kg
COc1cc2c(cc1OC)C(c1ccc(N)cc1)=NN=C(S)C2,ED50,[1],6.3 µmol/kg
same,ED50,[2],3.3 µmol/kg
COc1cc2c(O)nnc(-c3cccc([N+](=O)[O-])c3)c2cc1OC,ED50,[1],81.7 µmol/kg
same,ED50,[2],75.5 µmol/kg
COc1cc2c(cc1OC)C(c1ccc(Br)cc1)=NN(C)C(=O)C2,ED50,[1],63 µmol/kg
same,ED50,[2],38 µmol/kg
COc1cc2c(cc1OC)C(c1cccc(N)c1)=NN=C(S)C2,ED50,[1],18.8 µmol/kg
same,ED50,[2],9.1 µmol/kg
CN1N=C(c2ccccc2)c2cc3c(cc2CC1=O)OCO3,ED50,[1],82.5 µmol/kg
same,ED50,[2],70.4 µmol/kg
COc1cc2c(cc1OC)C(c1ccccc1)=NN(C(C)=O)C(=O)C2,ED50,[1],101 µmol/kg
same,ED50,[2],72.1 µmol/kg
COc1cc2c(-c3cccc(N)c3)nn(C)c(=O)c2cc1OC,ED50,[1],63.7 µmol/kg
same,ED50,[2],55.2 µmol/kg
COc1cc2c(cc1OC)C(c1cccc(N)c1)=NN(C)C(=O)C2,ED50,[1],36.8 µmol/kg
same,ED50,[2],30.6 µmol/kg
COc1cc2c(cc1OC)C(c1cccc(N)c1)=NNC(=O)C2,ED50,[1],19.3 µmol/kg
same,ED50,[2],18.3 µmol/kg
COc1cc2c(cc1OC)C(c1ccc(F)cc1)=Nn1c(O)nnc1C2,ED50,[1],32.1 µmol/kg
same,ED50,[2],21.8 µmol/kg
COc1cc2c(cc1OC)C(c1ccc(N)cc1)=NN(C)C(=S)C2,ED50,[1],29.8 µmol/kg
same,ED50,[2],20.3 µmol/kg
COc1cc2c(cc1OC)C(c1cccc([N+](=O)[O-])c1)NCC2 (configuration not stated),ED50,[1],19.3 µmol/kg
same,ED50,[2],7.19 µmol/kg
COc1cc2c(cc1OC)C(c1cccc([N+](=O)[O-])c1)N(C(C)=O)CC2 (configuration not stated),ED50,[1],37.2 µmol/kg
same,ED50,[2],12.7 µmol/kg
COc1cc2c(cc1OC)C(c1ccc(Cl)cc1)=NN=C(S)C2,ED50,[1],82.4 µmol/kg
same,ED50,[2],55 µmol/kg
Nc1ccc(C2=NNC(=O)Cc3cc4c(cc32)OCO4)cc1,ED50,[1],15.4 µmol/kg
same,ED50,[2],10.9 µmol/kg
COc1cc2c(cc1OC)C(c1ccc(N(C(C)=O)C(C)=O)cc1)=NN(C(C)=O)C(=O)C2,ED50,[1],56.8 µmol/kg
same,ED50,[2],43.9 µmol/kg
COc1cc2c(cc1OC)C(c1ccc(N)cc1)=Nn1c(O)nnc1C2,ED50,[1],16.1 µmol/kg
same,ED50,[2],10.2 µmol/kg
COc1cc2c(cc1OC)C(c1ccccc1)=NN(C)C(=O)C2,ED50,[1],37.8 µmol/kg
same,ED50,[2],26.7 µmol/kg
COc1cc2c(cc1OC)C(c1ccc([N+](=O)[O-])cc1)=Nn1c(C)nnc1C2,ED50,[1],66.7 µmol/kg
same,ED50,[2],59.3 µmol/kg
COc1cc2c(cc1OC)C(c1ccccc1)=NN(C)C(=S)C2,ED50,[1],30.6 µmol/kg
same,ED50,[2],24.7 µmol/kg
COc1cc2c(cc1OC)C(c1ccccc1)=NNC(=O)C2,ED50,[1],33.9 µmol/kg
same,ED50,[2],31.8 µmol/kg
O=C1Cc2cc3c(cc2C(c2ccc(O)cc2)=NN1)OCO3,ED50,[1],52.3 µmol/kg
same,ED50,[2],49.6 µmol/kg
COc1cc2c(cc1OC)C(c1ccc([N+](=O)[O-])cc1)=NN=C(S)C2,ED50,[1],93.4 µmol/kg
same,ED50,[2],69.8 µmol/kg
COc1cc2c(cc1OC)C(c1ccc([N+](=O)[O-])cc1)=Nn1c(O)nnc1C2,ED50,[1],74.1 µmol/kg
same,ED50,[2],58.3 µmol/kg
COc1cc2c(cc1OC)C(c1cccc(N)c1)=Nn1c(O)nnc1C2,ED50,[1],20.1 µmol/kg
same,ED50,[2],13.1 µmol/kg
COc1cc2c(cc1OC)C(c1ccc(N)cc1)=Nn1cnnc1C2,ED50,[1],57.3 µmol/kg
same,ED50,[2],48.3 µmol/kg
CNC(=O)n1nc(-c2ccc(N)cc2)c2cc3c(cc2c1=O)OCO3,ED50,[1],23.4 µmol/kg
same,ED50,[2],16.8 µmol/kg
COc1cc2c(cc1OC)C(c1ccc([N+](=O)[O-])cc1)=NN(C)C(=S)C2,ED50,[1],103 µmol/kg
same,ED50,[2],81.5 µmol/kg
COc1cc2c(cc1OC)C(c1ccc([N+](=O)[O-])cc1)NCC2 (configuration not stated),ED50,[1],100 µmol/kg
same,ED50,[2],56.1 µmol/kg
COc1cc2c(cc1OC)C(c1ccc(N)cc1)=Nn1c(C)nnc1C2,ED50,[1],59.9 µmol/kg
same,ED50,[2],44.7 µmol/kg
COc1cc2c(O)nnc(-c3ccc(NC(C)=O)cc3)c2cc1OC,ED50,[1],62 µmol/kg
same,ED50,[2],48.8 µmol/kg
COc1cc2c(cc1OC)C(c1ccc(Br)cc1)=NN(C)C(=S)C2,ED50,[1],105 µmol/kg
same,ED50,[2],60.4 µmol/kg
SC1=NN=C(c2ccccc2)c2cc3c(cc2C1)OCO3,ED50,[1],23.8 µmol/kg
same,ED50,[2],18.8 µmol/kg
COc1ccc2c(c1)CC(=O)NN1C(c3ccccc3)=NOC21c1ccccc1 (configuration not stated),ED50,[1],119 µmol/kg
same,ED50,[2],100 µmol/kg
COc1cc2c(cc1OC)C(c1ccc(N)cc1)=NN(C)C(=O)C2,ED50,[1],50.2 µmol/kg
same,ED50,[2],43.7 µmol/kg
COc1cc2c(cc1OC)C(c1ccc(N)cc1)=NNC(=O)C2,ED50,[1],15 µmol/kg
same,ED50,[2],12.6 µmol/kg
COc1cc2c(cc1OC)C(c1ccc(Br)cc1)=NNC(=O)C2,ED50,[1],110 µmol/kg
same,ED50,[2],82.5 µmol/kg
COc1cc2c(cc1OC)C(c1ccccc1)=Nn1c(O)nnc1C2,ED50,[1],44.6 µmol/kg
same,ED50,[2],27.5 µmol/kg
Nc1ccc(-c2nnc(O)c3cc4c(cc23)OCO4)cc1,ED50,[1],21.2 µmol/kg
same,ED50,[2],7.56 µmol/kg
CCCNC(=O)n1nc(-c2ccc(N)cc2)c2cc3c(cc2c1=O)OCO3,ED50,[1],15.8 µmol/kg
same,ED50,[2],6.82 µmol/kg
COc1cc2c(cc1OC)C(c1ccc(Cl)cc1)NCC2 (configuration not stated),ED50,[1],20.1 µmol/kg
same,ED50,[2],19.3 µmol/kg
COc1cc2c(cc1OC)C(c1ccc(Br)cc1)NCC2 (configuration not stated),ED50,[1],30.6 µmol/kg
same,ED50,[2],12.5 µmol/kg
CNC(=O)N1N=C(c2ccc(N)cc2)c2cc3c(cc2CC1=O)OCO3,ED50,[1],12.4 µmol/kg
same,ED50,[2],8.7 µmol/kg
COc1cc2c(-c3cccc([N+](=O)[O-])c3)nn(C)c(=O)c2cc1OC,ED50,[1],110 µmol/kg
same,ED50,[2],80.3 µmol/kg
Nc1cccc(C2=NNC(=O)Cc3cc4c(cc32)OCO4)c1,ED50,[1],18 µmol/kg
same,ED50,[2],12.7 µmol/kg
